These results are taken from patent publication US9187472B2 (AbbVie Inc., priority 2012, dated 2015).

Each structure is given as a SMILES string.

Experiment [1] has as its target NAMPT (human, recombinant, C-terminally His-tagged) (Homo sapiens, UniProt P43490). In words: Time-Resolved Fluorescence Resonance Energy Transfer (TR-FRET) Binding Assay of NAMPT. The settings on record: without substrates; 6.8 nM NAMPT, 200 nM probe, 3 hours equilibration. The essentials:
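Probe displacement by compound was measured with 6.8 nM NAMPT, 200 nM Oregon Green 488-conjugated nicotinamide-competitive inhibitor probe and 1 nM Tb-anti-His antibody in 50 mM HEPES pH 7.5, 100 mM NaCl, 10 mM MgCl2, 1 mM DTT, 1% glycerol, 2% DMSO (final). After 3 h at room temperature, TR-FRET was read; IC50 from four-parameter logistic fit.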
For orientation: In TR-FRET formats the signal depends on donor and acceptor labels being close together.

The target in a further experiment is NAMPT (Homo sapiens, UniProt P43490). The experiment in a line: TR-FRET Binding Assay of NAMPT with PRPP. The conditions noted are these: with 200 μM PRPP and 2.5 mM ATP; 2 nM NAMPT, 2 nM probe, 16 hours equilibration. In short, it runs like this: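 Run in the presence of substrates (200 μM PRPP, 2.5 mM ATP) with final 2 nM NAMPT, 2 nM probe, 1 nM Tb-anti-His antibody and 2% DMSO. Mixtures equilibrated 16 h before TR-FRET measurement so test compounds could be enzymatically modified.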
Chain of NAMPT (P43490 whole entry): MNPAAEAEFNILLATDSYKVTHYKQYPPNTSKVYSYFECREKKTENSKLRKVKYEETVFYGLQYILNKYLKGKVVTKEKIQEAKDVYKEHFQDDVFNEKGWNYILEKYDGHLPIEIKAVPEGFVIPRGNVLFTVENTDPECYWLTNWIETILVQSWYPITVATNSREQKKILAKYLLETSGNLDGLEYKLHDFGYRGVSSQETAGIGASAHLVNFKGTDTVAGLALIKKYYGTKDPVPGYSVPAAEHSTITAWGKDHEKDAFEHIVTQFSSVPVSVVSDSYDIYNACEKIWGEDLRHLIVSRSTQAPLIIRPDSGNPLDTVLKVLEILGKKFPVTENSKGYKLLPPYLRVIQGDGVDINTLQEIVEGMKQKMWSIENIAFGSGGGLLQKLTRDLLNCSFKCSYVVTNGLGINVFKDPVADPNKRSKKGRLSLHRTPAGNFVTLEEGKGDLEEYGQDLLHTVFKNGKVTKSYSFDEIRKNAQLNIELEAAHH

A further experiment has as its system PC3 cells. The experiment in a line: NAMPT Cell Proliferation Assay. The class given is cell-based. The conditions noted are these: Homo sapiens, PC-3, 120 h, 5 days incubation, cell viability by Cell Titer Glo. The essentials:
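PC3 cells were plated at 500 cells/well in RPMI with 10% heat-inactivated FBS, left to attach overnight, then given compounds in 10-fold dilutions from 10 μM to 1×10^−5 μM. After 5 days at 37° C and 5% CO2, viability was read by luminescence and IC50s came from sigmoidal fits of percent inhibition.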
On the technique in general: ATP-based viability assays read luminescence as a measure of living cells.

Chain of NAMPT (human, recombinant, C-terminally His-tagged) (P43490 whole entry): as above

As a reminder, the IC50 is the point on the concentration scale where inhibition reaches its midpoint. On to `O=C(NCc1ccn2ccnc2c1)c1ccc(C2CN(S(=O)(=O)C3CC3)C2)cc1` [Example 568, 4-[1-(cyclopropylsulfonyl)azetidin-3-yl]-N-(imidazo[1,2-a]pyridin-7-ylmethyl)benzamide], for which the 50% inhibitory concentration (IC50) came out at 375 nM in experiment [1], 0.723 nM at NAMPT and 180 nM with PC3 cells.

Turning to `O=C(NCc1ccn2ccnc2c1)c1ccc(C2CN(C(=O)c3cscn3)C2)cc1` [Example 637, N-(imidazo[1,2-a]pyridin-7-ylmethyl)-4-[1-(1,3-thiazol-4-ylcarbonyl)azetidin-3-yl]benzamide], the IC50 is 360 nM in experiment [1], 0.421 nM at NAMPT and 81.1 nM in the experiment on PC3 cells.

As for `CC(C)(C)OC(=O)N1CCC(CCCCNC(=O)Nc2ccc3nccn3c2)CC1` [Example 58, tert-butyl 4-{4-[(imidazo[1,2-a]pyridin-6-ylcarbamoyl)amino]butyl}piperidine-1-carboxylate], the IC50 was found to be 523 nM in experiment [1], 1.43 nM at NAMPT and 52.6 nM in the experiment on PC3 cells.

Regarding `CC[C@H](C)C(=O)N1CC(O)(c2ccc(C(=O)NCc3ccn4ccnc4c3)s2)C1` [Example 405, 5-{3-hydroxy-1-[(2S)-2-methylbutanoyl]azetidin-3-yl}-N-(imidazo[1,2-a]pyridin-7-ylmethyl)thiophene-2-carboxamide], the 50% inhibitory concentration (IC50) in experiment [1] worked out at 78.4 nM; on NAMPT it was 0.214 nM; in the experiment with PC3 cells it was 22.1 nM.

For the compound `O=C(NCc1ccn2ccnc2c1)Nc1ccc(C2CCN(C(=O)c3ccccc3F)CC2)cc1` [Example 719, 1-{4-[1-(2-fluorobenzoyl)piperidin-4-yl]phenyl}-3-(imidazo[1,2-a]pyridin-7-ylmethyl)urea], the concentration for half-maximal inhibition (IC50) turned out to be 6.32 nM in experiment [1], 0.835 nM at NAMPT and 2.37 nM with PC3 cells.

Regarding `O=C(CCC1CCCC1)Nc1ccc(C(=O)NCc2ccn3ccnc3c2)cc1` [Example 212, 4-[(3-cyclopentylpropanoyl)amino]-N-(imidazo[1,2-a]pyridin-7-ylmethyl)benzamide], the IC50 in experiment [1] amounted to 44.8 nM; at NAMPT, 0.21 nM; in the experiment with PC3 cells it was 34.1 nM.

As to `CS(=O)(=O)N1CC(c2ccc(C(=O)NCc3ccn4ccnc4c3)cc2)C1` [Example 623, N-(imidazo[1,2-a]pyridin-7-ylmethyl)-4-[1-(methylsulfonyl)azetidin-3-yl]benzamide], the half-maximal inhibitory concentration (IC50) in experiment [1] stood at 1010 nM; on NAMPT, 1.6 nM; in the experiment on PC3 cells it was 446 nM.

Regarding `CC(C)CCn1nccc1-c1ccc(C(=O)NCc2ccn3ccnc3c2)o1` [Example 821, N-(imidazo[1,2-a]pyridin-7-ylmethyl)-5-[1-(3-methylbutyl)-1H-pyrazol-5-yl]furan-2-carboxamide], the half-maximal inhibitory concentration (IC50) in experiment [1] worked out at 663 nM; on NAMPT it was 0.284 nM; with PC3 cells, 192 nM.

For the compound `O=C(NCc1ccn2ccnc2c1)c1ccc(C2CCN(C(=O)c3ccccc3Cl)C2)cc1` (stereo not drawn) [Example 594, 4-[1-(2-chlorobenzoyl)pyrrolidin-3-yl]-N-(imidazo[1,2-a]pyridin-7-ylmethyl)benzamide], the figures for the half-inhibitory concentration (IC50) (in experiment [1]; on NAMPT; in the experiment on PC3 cells) were 22.7 nM, 0.682 nM and 1.11 nM, respectively.

On to `O=C(NCc1ccn2ccnc2c1)Nc1ccc(C2CCN(C(=O)c3ccc(F)cc3)CC2)cc1` [Example 721, 1-{4-[1-(4-fluorobenzoyl)piperidin-4-yl]phenyl}-3-(imidazo[1,2-a]pyridin-7-ylmethyl)urea], for which the concentration for half-maximal inhibition (IC50) in experiment [1] was determined as 125 nM; on NAMPT, 1.21 nM; in the experiment with PC3 cells, 30.7 nM.

Take `CC[C@H](C)C(=O)N1CC(Oc2ccc(C(=O)NCc3ccn4ccnc4c3)cc2)C1` [Example 559, N-(imidazo[1,2-a]pyridin-7-ylmethyl)-4-({1-[(2S)-2-methylbutanoyl]azetidin-3-yl}oxy)benzamide]: the IC50 in experiment [1] came to 681 nM; at NAMPT it was 0.223 nM; with PC3 cells it was 94.3 nM.

Turning to `Cc1ccsc1C(=O)N1CCC(c2ccc(C(=O)NCc3ccn4ccnc4c3)cc2)C1` (stereo not drawn) [Example 619, N-(imidazo[1,2-a]pyridin-7-ylmethyl)-4-{1-[(3-methylthiophen-2-yl)carbonyl]pyrrolidin-3-yl}benzamide], the half-maximal inhibitory concentration (IC50) in experiment [1] was 79.3 nM; on NAMPT, 0.616 nM; with PC3 cells, 3.3 nM.

As to `CC(C)C(=O)N1CCC(c2ccc(NC(=O)Nc3ccc4nccn4c3)cc2)CC1` [Example 106, 1-imidazo[1,2-a]pyridin-6-yl-3-{4-[1-(2-methylpropanoyl)piperidin-4-yl]phenyl}urea], the values for the IC50 (in experiment [1]; on NAMPT; in the experiment on PC3 cells) were 247 nM, 0.201 nM and 78.7 nM, respectively.

With `O=C(NCc1ccn2ccnc2c1)c1ccc(C2CCN(C(=O)c3ccc(F)cc3F)C2)cc1` (stereo not drawn) [Example 592, 4-[1-(2,4-difluorobenzoyl)pyrrolidin-3-yl]-N-(imidazo[1,2-a]pyridin-7-ylmethyl)benzamide], the IC50 was 38.8 nM in experiment [1], 0.603 nM at NAMPT and 3.75 nM in the experiment with PC3 cells.

With `O=C(NCc1ccn2ccnc2c1)Nc1ccc(C2CCN(C(=O)[C@@H]3CCCO3)CC2)cc1` [Example 288, 1-(imidazo[1,2-a]pyridin-7-ylmethyl)-3-(4-{1-[(2S)-tetrahydrofuran-2-ylcarbonyl]piperidin-4-yl}phenyl)urea], the IC50 came out at 49.5 nM in experiment [1], 0.568 nM at NAMPT and 8.11 nM with PC3 cells.

Consider `Cn1cc(C(=O)N2CCC(c3ccc(C(=O)NCc4ccn5ccnc5c4)s3)C2)cn1` (stereo not drawn) [Example 775, N-(imidazo[1,2-a]pyridin-7-ylmethyl)-5-{1-[(1-methyl-1H-pyrazol-4-yl)carbonyl]pyrrolidin-3-yl}thiophene-2-carboxamide], for which the half-maximal inhibitory concentration (IC50) came to 51.9 nM in experiment [1], 0.538 nM on NAMPT and 60.9 nM in the experiment on PC3 cells.

Take `O=C(NCc1ccn2ccnc2c1)c1ccc(C2CN(C(=O)C3CCCC3)C2)cc1` [Example 631, 4-[1-(cyclopentylcarbonyl)azetidin-3-yl]-N-(imidazo[1,2-a]pyridin-7-ylmethyl)benzamide]: the IC50 in experiment [1] came to 616 nM; on NAMPT, 1.26 nM; in the experiment with PC3 cells it was 77.2 nM.

`CC[C@H](C)C(=O)N1CCC(Oc2ccc(NC(=O)NCc3ccn4ccnc4c3)cc2)CC1` [Example 443, 1-(imidazo[1,2-a]pyridin-7-ylmethyl)-3-[4-({1-[(2S)-2-methylbutanoyl]piperidin-4-yl}oxy)phenyl]urea]: the concentration for half-maximal inhibition (IC50) came to 138 nM in experiment [1], 0.274 nM at NAMPT and 8.96 nM in the experiment with PC3 cells.

Take `O=C(NCc1ccn2ccnc2c1)c1ccc(-c2cnn(CC3CCC3)c2)s1` [Example 475, 5-[1-(cyclobutylmethyl)-1H-pyrazol-4-yl]-N-(imidazo[1,2-a]pyridin-7-ylmethyl)thiophene-2-carboxamide]: the 50% inhibitory concentration (IC50) in experiment [1] was 9.76 nM; on NAMPT it was 0.169 nM; in the experiment with PC3 cells, 6.92 nM.

With `Cc1ccccc1C(=O)N1CCC(c2ccc(C(=O)NCc3ccn4ccnc4c3)cc2)CC1` [Example 507, N-(imidazo[1,2-a]pyridin-7-ylmethyl)-4-[1-(2-methylbenzoyl)piperidin-4-yl]benzamide], the IC50 in experiment [1] is 121 nM; on NAMPT, 0.359 nM; with PC3 cells, 3.2 nM.

Regarding `COCCNC(=O)N(C[C@H]1CCCO1)c1ncc(C(=O)NCc2ccc3nccn3c2)s1` [Example 153, N-(imidazo[1,2-a]pyridin-6-ylmethyl)-2-{[(2-methoxyethyl)carbamoyl][(2R)-tetrahydrofuran-2-ylmethyl]amino}-1,3-thiazole-5-carboxamide], the half-maximal inhibitory concentration (IC50) in experiment [1] is 118 nM; on NAMPT, 1.88 nM; in the experiment on PC3 cells, 3.73 nM.

With `CC(C)(O)C(=O)N1CCC(c2ccc(NC(=O)NCc3ccn4ccnc4c3)cc2)CC1` [Example 227, 1-{4-[1-(2-hydroxy-2-methylpropanoyl)piperidin-4-yl]phenyl}-3-(imidazo[1,2-a]pyridin-7-ylmethyl)urea], the IC50 in experiment [1] was 16.2 nM; at NAMPT it was 0.273 nM; with PC3 cells it was 6.28 nM.

As for `O=C(NCCCCC1CCN(C(=O)C2CCCO2)CC1)Nc1ccc2nccn2c1` (stereo not drawn) [Example 74, 1-imidazo[1,2-a]pyridin-6-yl-3-{4-[1-(tetrahydrofuran-2-ylcarbonyl)piperidin-4-yl]butyl}urea], the values for the IC50 (in experiment [1]; at NAMPT; in the experiment with PC3 cells) were 356 nM, 0.222 nM and 14 nM, respectively.

On to `COc1cc(CCC(=O)N(CC2CCCO2)c2ncc(C(=O)NCc3ccc4nccn4c3)s2)on1` (stereo not drawn) [Example 127, N-(imidazo[1,2-a]pyridin-6-ylmethyl)-2-{[3-(3-methoxy-1,2-oxazol-5-yl)propanoyl](tetrahydrofuran-2-ylmethyl)amino}-1,3-thiazole-5-carboxamide], for which the half-inhibitory concentration (IC50) turned out to be 52.2 nM in experiment [1], 0.522 nM at NAMPT and 2.34 nM in the experiment with PC3 cells.

For the compound `CC(C)(C)OC(=O)N1CCC(c2ccc(C(=O)NCc3ccn4ncnc4c3)cc2)CC1` [Example 563, tert-butyl 4-{4-[([1,2,4]triazolo[1,5-a]pyridin-7-ylmethyl)carbamoyl]phenyl}piperidine-1-carboxylate], the values for the IC50 (in experiment [1]; on NAMPT; with PC3 cells) were 322 nM, 4.19 nM and 5140 nM, respectively.
